Laboratory results reported in publication PMC11796312, “Multifunctional, Fluorene‐Based Modulator of Cholinergic and GABAergic Neurotransmission as a Novel Drug Candidate for Palliative Treatment of Alzheimer's Disease” (Angewandte Chemie (International Ed. in English), 2024).
“And” between values parts separate entries of the source, which are not always exact repeats. Identical values can stand only once. “Also recorded” adds a separate entry of the source.

Tested on: ICR-CD1 mice
Assay: Acute toxicity study i.p. (MTD, biochemistry, histopathology)
Format: in vivo
Parameters: key to prostration / tremor / convulsions / hyper/hypoventilation / drop of eyelids / ataxia / stooped posture: mild (+); moderate (++); severe (+++)
Settings: for stooped posture: Female 1
Description: Toxicology and pharmacokinetic in vivo study
ICR-CD1 mice weighing 20–25 g were purchased from Velaz (Prague, Czech Republic).
They were kept in an air-conditioned room with the light from 07:00 to 19:00 hours and were allowed access to standard food and tap water ad libitum. The mice were divided into groups […]
Ethical approval statement
The experimental animals were handled under the supervision of the Ethics Committee of the […]
706288/2023-1457) and the treatment of animals was in full accordance with ethical standards laid down in respective Czech and EU regulations.
Design of in vivo experiments
Acute toxicity study – Maximal tolerated dose, biochemical analysis, and histopathologic […]
Mice (ICR-CD1, Velaz, Prague, Czech Republic) were randomly assigned to the experimental groups of two males and two females per one applied dose of 6. 6 was administered intraperitoneally (i.p., 0.1 mL/10 g of animal weight; 1% Tween 80). Several doses were administered to identify the toxic profile of tested compounds and establish the Maximal Tolerated Dose (MTD, i.p.). Treated animals were intensively observed for signs of toxicity, such as respiratory, cardiovascular, and nervous system disability. Weight loss or reduced food consumption was assessed according to the FELASA classification[39] in the first two hours and then periodically for the subsequent 46 hours. The toxicity signs were classified according to a previously published study.[40]
All animals surviving the 48 hours were deeply euthanized by CO2 and subjected to basic macroscopic necropsy. The blood was collected for biochemical analysis, and selected organs (kidney and liver) were collected for histopathologic examination.
Venous blood was collected into heparinized tubes (Scanlab Systems, Prague, Czech Republic). Plasma was subsequently separated (3,000 × g for 10 min, 4 °C) using centrifuge U-320R (Boeco, Hamburg, Germany). The concentration of urea and creatinine and the activity of alanine aminotransferase (ALT), aspartate aminotransferase (AST), alkaline […]
phosphatase (ALP), amylase, and lactate dehydrogenase (LDH) were measured in the accredited biochemical laboratory of the Department of Clinical Biochemistry and Diagnostics, University Hospital, Hradec Kralove, Czech Republic. Statistical data analysis was performed through IBM SPSS Statistics version 26 (IBM, Armonk, NY, USA) using the Kolmogorov-Smirnov and Shapiro-Wilk tests to test data normality. Due to normally distributed data, the Student´s t-test was used to assess the differences compared with the control group (p ≤ 0.05).
Samples of the liver and kidney were used for standard histopathological examination. Organs were fixed with 10% neutral buffered formalin (Bamed s.r.o., Ceske Budejovice, Czech Republic), histologically processed, and stained with hematoxylin and eosin (both Merck) according to Pejchal et al.[41] The histopathological changes were evaluated using a BX-51 microscope (Olympus, Tokyo, Japan). […]
The time intervals
PK studies). The samples were centrifuged at 3,000 × g for 10 min (10 °C), and the plasma samples were stored at -80 °C until the HPLC analysis.

[1] = 20 mg/kg i.p., Male 1, Female 1, Female 2
[2] = 40 mg/kg i.p., Male 1, Female 1, Female 2
[3] = 60 mg/kg i.p., Male 1, Male 2, Female 2
[4] = female mice, 10 mg/kg, Female 1, Female 2
[5] = female mice, 20 mg/kg, Female 1, Female 2
[6] = female mice, 40 mg/kg, Female 1, Female 2
[7] = female mice, 60 mg/kg, Female 1, Female 2
[8] = male mice, 10 mg/kg i.p., Male 1, Male 2
[9] = male mice, 20 mg/kg i.p., Male 1
[10] = male mice, 20 mg/kg i.p., Male 1, Male 2
[11] = male mice, 40 mg/kg i.p., Male 1, Male 2
[12] = male mice, 60 mg/kg i.p., Male 1, Male 2
[13] = male mice, 60 mg/kg i.p., Male 1, Male 2, 60 mg/kg

## O[C@H](CNCC1CC1)[C@H](Cc1ccccc1)NC1c2ccccc2-c2ccccc21 [Compound 6]
10 mg/kg i.p.
  signs of poisoning at MTD: mild to moderate signs of poisoning may occur
10 mg/kg i.p., 48 h
  ALP, plasma: 68.4 ± 27.2 U/L
  ALT, plasma: 29.0 ± 6.5 U/L
  AST, plasma: 56.8 ± 6.6 U/L
  Amylase, plasma: 2960 ± 500 U/L and 2955 ± 501 U/L
  LDH, plasma: 275 ± 94 U/L
  Urea, plasma: 33.8 ± 8.2 mg/dL
10 mg/kg i.p., 48 h, Student's t-test
  blood biochemistry vs control: No significant differences
10 mg/kg i.p., 48 h, table lines in order Male 1, Male 2, Female 1, Female 2
  Necropsy: no macroscopic pathology; also recorded: no findings; also recorded: mild hyperemia in the peritoneal cavity
10 mg/kg i.p., table lines in order Male 1, Male 2, Female 1, Female 2
  Histopathological findings, liver and renal tissue: no tissue damage; also recorded: dg: mild peritoneal irritation; also recorded: no findings
20 mg/kg i.p., N = 3
  ALP, plasma: 60.4 ± 28.6 U/L
  ALT, plasma: 27.0 ± 15.6 U/L
  AST, plasma: 55.6 ± 6.7 U/L
  Amylase, plasma: 3129 ± 444 U/L
  LDH, plasma: 223 ± 38 U/L
  Urea, plasma: 31.8 ± 6.7 mg/dL
[1]
  Histopathological findings, liver and renal tissue: dg: peritonitis
  Necropsy: moderate hyperemia in the abdominal cavity
40 mg/kg i.p., N = 3
  ALP, plasma: 63.5 ± 26.9 U/L
  ALT, plasma: 57.1 ± 16.5 U/L
  AST, plasma: 82.4 ± 54.0 U/L
  Amylase, plasma: 3485 ± 894 U/L
  LDH, plasma: 511 ± 423 U/L
  Urea, plasma: 93.6 ± 60.4 mg/dL
[2]
  Histopathological findings, liver and renal tissue: dg: severe peritonitis
  Necropsy: dilatation of small and large intestine loops; also recorded: dilatation of the stomach, small and large
60 mg/kg i.p., N = 3
  ALP, plasma: 71.4 ± 23.4 U/L
  ALT, plasma: 230.4 ± 140.7 U/L
  AST, plasma: 318.0 ± 213.7 U/L
  Amylase, plasma: 3723 ± 448 U/L
  LDH, plasma: 1101 ± 562 U/L
  Urea, plasma: 142.9 ± 145.2 mg/dL
[3]
  Histopathological findings, liver and renal tissue: dg: severe peritonitis
  Necropsy: dilatation of small and large intestine loops
Female mice, 10 mg/kg i.p., lines in order Female 1, Female 2
  hyper/hypoventilation: +
[4]
  drop of eyelids: +
  prostration: +
  tremor: + and ++
Female mice, 10 mg/kg, Female 2
  convulsions: +
Female mice, 20 mg/kg
  stooped posture: +
[5]
  drop of eyelids: +
  hyper/hypoventilation: +
  prostration: ++
  tremor: + and ++
  weight at 24 h (%): -4.2% and -1.8%
  weight at 48 h (%): -6.5% and 0.0%
[6]
  drop of eyelids: +
  hyper/hypoventilation: ++
  tremor: +
  weight at 24 h (%): -4.5% and -3.5%
  weight at 48 h (%): -9.1% and -7.1%
Female mice, 60 mg/kg
  stooped posture: +
[7]
  drop of eyelids: +
  hyper/hypoventilation: ++
  tremor: +
  weight at 24 h (%): -5.0% and -6.6%
Female mice, 60 mg/kg, Female 1, before the 48-hour check-up
  mortality: died overnight
Female mice, 60 mg/kg, Female 2
  weight at 48 h (%): -7.5%
[8]
  prostration: +
  tremor: +
Male mice, 10 mg/kg i.p., lines in order Male 1, Male 2
  hyper/hypoventilation: +
[9]
  weight at 24 h (%): -0.2%
  weight at 48 h (%): +1.0%
[10]
  ataxia: +
  drop of eyelids: +
  hyper/hypoventilation: +
  prostration: ++
  tremor: +
Male mice, 20 mg/kg i.p., Male 2
  convulsions: +++
Male mice, 20 mg/kg i.p., Male 2, before the 24-hour check-up
  mortality: died overnight
Male mice, 40 mg/kg i.p., Male 1
  weight at 48 h (%): -6.7%
[11]
  drop of eyelids: +
  hyper/hypoventilation: ++
  prostration: ++
  tremor: +
Male mice, 40 mg/kg i.p., Male 1, Male 2, 40 mg/kg
  weight at 24 h (%): -6.1% and -7.0%
Male mice, 40 mg/kg i.p., Male 2, before the 48-hour check-up
  mortality: died overnight
Male mice, 60 mg/kg i.p., Male 1
  ataxia: +
[12]
  drop of eyelids: +
  hyper/hypoventilation: ++
  prostration: +++
  tremor: +
[13]
  weight at 24 h (%): -3.6% and -10.5%
  weight at 48 h (%): -16.0% and -15.6%
